Data published in patent US20260102359A1, “COMBINATION TREATMENT OF DERMAL AND TRANSDERMAL FIBROTIC DISEASES, DISORDERS AND ASSOCIATED PAIN AND INFLAMMATION” (ERESINA, LLC, priority 2022, published 2026).
Counter-ions that a name gives are not always drawn. Where a SMILES comes first, the peptide text is derived from it. Bridges are numbered along the chain shown (N, C = ends). [ ]: non-standard residue; d: D form. hArg = N=C(N)NCCCC[C@H](N)C(=O)O; Mpa = O=C(O)CCS

What follows are compounds tested on hDMFa myofibroblast cells.

Row | Structure (SMILES) | Compound Myofibroblast Cytotoxicity Activity
1 | Oc1ccc(Cl)cc1Cc1cc(Cl)ccc1O [Cmpd 353, Dichlorophen] | +++++
2 | N#CC(c1ccc(Cl)cc1)c1c(Cl)cc(-n2ncc(=O)[nH]c2=O)cc1Cl (stereo not shown) [Cmpd 354, Diclazuril] | +++
3 | O=C(O)Cc1ccccc1Nc1c(Cl)cccc1Cl [Cmpd 355, Diclofenac] | ++
4 | CC/C(=C(/CC)c1ccc(O)cc1)c1ccc(O)cc1 [Cmpd 358, Diethylstilbestrol] | +++
5 | O=C(O)c1cc(-c2ccc(F)cc2F)ccc1O [Cmpd 359, Diflunisal] | ++
6 | OC(CCCN1CCCCC1)(c1ccccc1)c1ccccc1 [Cmpd 365, Diphenidol HCl] | ++++
7 | CC(C)N(CCC(C(N)=O)(c1ccccc1)c1ccccn1)C(C)C (stereo not shown) [Cmpd 366, Disopyramide] | ++
8 | CC/C=C\C/C=C\C/C=C\C/C=C\C/C=C\C/C=C\CCC(=O)O [Cmpd 375, Docosahexaenoic Acid] | +++
9 | O=C(O[C@@H]1C[C@@H]2C[C@H]3C[C@H](C1)N2CC3=O)c1c[nH]c2ccccc12 [Cmpd 376, Dolasetron] | ++
10 | O=c1[nH]c2ccccc2n1CCCN1CCC(n2c(=O)[nH]c3cc(Cl)ccc32)CC1 [Cmpd 378, Domperidone] | ++
11 | CC(O)C(=O)O.CC(O)C(=O)O.CN1CCN(c2ccc3nc(-c4c(N)c5c(F)cccc5[nH]c4=O)[nH]c3c2)CC1 [Cmpd 383, Dovitinib Dilactic acid] | +++
12 | COc1cc2nc(N3CCN(C(=O)C4COc5ccccc5O4)CC3)nc(N)c2cc1OC (stereo not shown) [Cmpd 384, Doxazosin Mesylate] | +++
13 | CN(C)CCC=C1c2ccccc2COc2ccccc21 [Cmpd 385, Doxepin (hydrochloride)] | ++
14 | C=C1/C(=C\C=C2/CCC[C@]3(C)[C@@H]([C@H](C)/C=C/[C@H](C)C(C)C)CC[C@@H]23)C[C@@H](O)C[C@@H]1O [Cmpd 386, Doxercalciferol] | +++
15 | C[C@H]1O[C@@H](n2cc(F)c(=O)[nH]c2=O)[C@H](O)[C@@H]1O [Cmpd 387, Doxifluridine] | ++++
16 | C[C@H]1c2cccc(O)c2C(=O)C2=C(O)[C@]3(O)C(=O)C(C(N)=O)=C(O)[C@@H](N(C)C)[C@@H]3[C@@H](O)[C@@H]21 [Cmpd 388, Doxycycline HCl] | ++
17 | CC(C)(CO)[C@H](O)C(=O)NCCCO [Cmpd 390, D-Panthenol] | ++
18 | CC(C)(CO)[C@@H](O)C(=O)NCCC(=O)[O-].[Na+] [Cmpd 391, D-Pantothenate sodium] | ++
19 | CNCC[C@H](Oc1cccc2ccccc12)c1cccs1 [Cmpd 397, Duloxetine HCl] | +++++
20 | CCCCOc1ccc(C(=O)CCN2CCCCC2)cc1 [Cmpd 398, Dyclonine HCl] | +++

Row | Structure (SMILES) | Compound Myofibroblast Cytotoxicity Activity
21 | Clc1ccc(COC(Cn2ccnc2)c2ccc(Cl)cc2Cl)cc1 (stereo not shown) [Cmpd 403, Econazole nitrate] | +++
22 | O=C([O-])CN(CCN(CC(=O)[O-])CC(=O)[O-])CC(=O)[O-].[Ca+2].[Na+].[Na+] [Cmpd 404, edetate calcium disodium] | ++
23 | CC[N+](C)(C)c1cccc(O)c1.[Cl-] [Cmpd 406, Edrophonium (chloride)] | +++
24 | CC/C=C\C/C=C\C/C=C\C/C=C\C/C=C\CCCC(=O)O [Cmpd 408, Eicosapentaenoic Acid] | +++
25 | CC1=NN(c2ccc(C)c(C)c2)C(=O)/C1=N\Nc1cccc(-c2cccc(C(=O)O)c2)c1O [Cmpd 410, Eltrombopag] | ++
26 | CN1CCC(COc2cnc(-c3cccc(Cn4nc(-c5cccc(C#N)c5)ccc4=O)c3)nc2)CC1 [Cmpd 413, EMD-1214063] | ++++
27 | Cc1cc(O)c2c(c1)C(=O)c1cc(O)cc(O)c1C2=O [Cmpd 415, Emodin (6-Methyl-1,3,8-trihydroxyanthraquinone)] | ++
28 | CCn1cc(C(=O)O)c(=O)c2cc(F)c(N3CCNCC3)nc21 [Cmpd 416, Enoxacin Sesquihydrate] | ++
29 | C=C1[C@H](CO)[C@@H](O)C[C@@H]1n1cnc2c(=O)[nH]c(N)nc21 [Cmpd 418, Entecavir Hydrate] | +++
30 | CN1CCN(c2ccc(C(=O)Nc3n[nH]c4ccc(Cc5cc(F)cc(F)c5)cc34)c(NC3CCOCC3)c2)CC1 [Cmpd 419, Entrectinib] | +++
31 | Cn1cc(C2=C(c3cn(C4CCN(Cc5ccccn5)CC4)c4ccccc34)C(=O)NC2=O)c2ccccc21 [Cmpd 420, Enzastaurin (LY317615)] | ++++
32 | O=S(=O)([O-])CCCS(=O)(=O)[O-].[Na+].[Na+] [Cmpd 423, Eprodisate disodium] | ++
33 | N=C(N)NCCCC[C@@H]1NC(=O)CCSSC[C@@H](C(N)=O)NC(=O)[C@@H]2CCCN2C(=O)[C@H](Cc2c[nH]c3ccccc23)NC(=O)[C@H](CC(=O)O)NC(=O)CNC1=O [Cmpd 424, Eptifibatide Acetate] ([Mpa][hArg]GDWPC-NH2; disulfide 1-7) | ++
34 | COc1ccc2[n-]c([S+]([O-])Cc3ncc(C)c(OC)c3C)nc2c1.COc1ccc2[n-]c([S+]([O-])Cc3ncc(C)c(OC)c3C)nc2c1.[Mg+2] (stereo not shown) [Cmpd 427, Esomeprazole Magnesium] | ++
35 | COc1ccc2[n-]c([S@@+]([O-])Cc3ncc(C)c(OC)c3C)nc2c1.COc1ccc2[n-]c([S@@+]([O-])Cc3ncc(C)c(OC)c3C)nc2c1.O.O.O.[Mg+2] [Cmpd 428, Esomeprazole Magnesium trihydrate] | ++
36 | C[C@]12CC[C@@H]3c4ccc(O)cc4CC[C@H]3[C@@H]1CC[C@@H]2OC(=O)CCC1CCCC1 [Cmpd 430, Estradiol Cypionate] | +++
37 | CCCCC(=O)O[C@H]1CC[C@H]2[C@@H]3CCc4cc(O)ccc4[C@H]3CC[C@]12C [Cmpd 431, Estradiol valerate] | +++
38 | C[C@]12CC[C@@H]3c4ccc(OS(=O)(=O)O)cc4CC[C@H]3[C@@H]1CCC2=O [Cmpd 432, Estropipate] | +++
39 | C=C(CC)C(=O)c1ccc(OCC(=O)O)c(Cl)c1Cl [Cmpd 434, Ethacrynic Acid] | +++
40 | CCC1(C)CC(=O)NC1=O (stereo not shown) [Cmpd 436, Ethosuximide] | ++

Row | Structure (SMILES) | Compound Myofibroblast Cytotoxicity Activity
41 | CCOC(=O)C=Cc1ccccc1 [Cmpd 437, Ethyl Cinnamate] | ++
42 | C#C[C@]1(OC(C)=O)CC[C@H]2[C@@H]3CCC4=C[C@@H](OC(C)=O)CC[C@@H]4[C@H]3CC[C@@]21C [Cmpd 439, Ethynodiol diacetate] | ++
43 | CCOC(=O)/C=C(C)/C=C/C=C(C)/C=C/c1c(C)cc(OC)c(C)c1C [Cmpd 442, Etretinate] | +++
44 | Cc1cc(-c2ccc(/N=N/c3ccc4c(S(=O)(=O)[O-])cc(S(=O)(=O)[O-])c(N)c4c3O)c(C)c2)ccc1/N=N/c1ccc2c(S(=O)(=O)[O-])cc(S(=O)(=O)[O-])c(N)c2c1O.[Na+].[Na+].[Na+].[Na+] [Cmpd 445, Evans Blue tetrasodium salt] | ++
45 | CO[C@H]1C[C@@H]2CC[C@@H](C)[C@@](O)(O2)C(=O)C(=O)N2CCCC[C@H]2C(=O)O[C@H]([C@H](C)C[C@@H]2CC[C@@H](OCCO)[C@H](OC)C2)CC(=O)[C@H](C)/C=C(\C)[C@@H](O)[C@@H](OC)C(=O)[C@H](C)C[C@H](C)/C=C/C=C/C=C/1C [Cmpd 446, Everolimus (RAD001)] | +++++
46 | CC(=O)OCC(CCn1cnc2cnc(N)nc21)COC(C)=O [Cmpd 447, Famciclovir] | +++
47 | CCOC(=O)C1=C(C)NC(C)=C(C(=O)OC)C1c1cccc(Cl)c1Cl (stereo not shown) [Cmpd 449, Felodipine] | +++
48 | CC(NCCC(c1ccccc1)c1ccccc1)c1ccccc1 (stereo not shown) [Cmpd 450, Fendiline (hydrochloride)] | +++
49 | Clc1ccc(C(Cn2ccnc2)OCc2ccc(Sc3ccccc3)cc2)c(Cl)c1 (stereo not shown) [Cmpd 452, Fenticonazole Nitrate] | ++++
50 | COc1cc(/C=C/C(=O)O)ccc1O [Cmpd 453, Ferulic Acid] | ++
51 | CCc1c(Cl)c(O)c(Cl)c(O)c1C(=O)O[C@H]1[C@H](O)[C@H](OC)[C@H](OC/C2=C\C=C\C[C@H](O)/C(C)=C/[C@H](CC)[C@@H](O[C@@H]3OC(C)(C)[C@@H](OC(=O)C(C)C)[C@H](O)[C@@H]3O)/C(C)=C/C(C)=C/C[C@@H]([C@@H](C)O)OC2=O)O[C@@H]1C [Cmpd 454, Fidaxomicin] | +++++
52 | CCC(=O)c1c(O)cc(O)cc1O [Cmpd 458, Flopropione] | ++
53 | O=c1[nH]c(=O)n([C@H]2C[C@H](O)[C@@H](CO)O2)cc1F [Cmpd 459, Floxuridine] | +++
54 | Cl.Cl.Fc1ccc(C(c2ccc(F)cc2)N2CCN(C/C=C/c3ccccc3)CC2)cc1 [Cmpd 460, Flunarizine 2HCl] | ++
55 | CC1(C)O[C@@H]2C[C@H]3[C@@H]4C[C@H](F)C5=CC(=O)C=C[C@]5(C)[C@H]4[C@@H](O)C[C@]3(C)[C@]2(C(=O)CO)O1 [Cmpd 461, Flunisolide] | ++
56 | O=C1OC2(c3ccc(O)cc3Oc3cc(O)ccc32)c2ccccc21 [Cmpd 462, Fluorescein] | ++
57 | CC(=O)[C@@]1(O)CC[C@H]2[C@@H]3C[C@H](C)C4=CC(=O)C=C[C@]4(C)[C@@]3(F)[C@@H](O)C[C@@]21C [Cmpd 463, Fluorometholone] | ++
58 | CNCCC(Oc1ccc(C(F)(F)F)cc1)c1ccccc1 (stereo not shown) [Cmpd 464, Fluoxetine HCl] | +++
